Experimental data published in ChEMBL document CHEMBL2417377, “Hit-to-lead optimization and kinase selectivity of imidazo[1,2-a]quinoxalin-4-amine derived JNK1 inhibitors” (Bioorg Med Chem Lett, 2013).

Columns and labels:
[1] = target: Serine/threonine-protein kinase WNK2 (Homo sapiens) (UniProt Q9Y3S1); assay: Inhibition of Wnk2 in human PC3 cell lysates at 10 uM using desthiobiotin-tagged ATP probe AX9989 followed by trypsinization by LC/MS analysis; settings: PC-3
[2] = target: T1, Mitogen-activated protein kinase kinase kinase 2 (Homo sapiens) (UniProt Q9Y2U5); assay: Inhibition of MAP3K2 in human PC3 cell lysates at 10 uM using desthiobiotin-tagged ATP probe AX9989 followed by trypsinization by LC/MS analysis; settings: PC-3
T1 sequence (whole entry): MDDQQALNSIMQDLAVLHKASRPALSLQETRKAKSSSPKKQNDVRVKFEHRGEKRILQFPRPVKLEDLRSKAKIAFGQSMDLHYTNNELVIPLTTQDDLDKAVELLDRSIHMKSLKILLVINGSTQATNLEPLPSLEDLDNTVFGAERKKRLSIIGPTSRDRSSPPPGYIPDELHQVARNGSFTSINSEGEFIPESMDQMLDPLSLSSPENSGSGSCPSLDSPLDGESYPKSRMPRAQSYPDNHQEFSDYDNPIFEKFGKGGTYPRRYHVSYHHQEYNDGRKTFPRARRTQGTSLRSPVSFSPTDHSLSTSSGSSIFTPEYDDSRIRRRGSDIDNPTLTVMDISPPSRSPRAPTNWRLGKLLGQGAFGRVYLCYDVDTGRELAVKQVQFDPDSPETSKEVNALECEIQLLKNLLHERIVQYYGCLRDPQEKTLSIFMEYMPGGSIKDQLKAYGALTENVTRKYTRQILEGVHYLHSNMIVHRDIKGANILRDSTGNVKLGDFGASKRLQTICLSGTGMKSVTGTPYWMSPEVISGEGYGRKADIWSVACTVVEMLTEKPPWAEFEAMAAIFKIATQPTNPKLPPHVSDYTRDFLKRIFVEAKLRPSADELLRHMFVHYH

[3] = target: Tyrosine-protein kinase CSK (Homo sapiens) (UniProt P41240); assay: Inhibition of CSK in human PC3 cell lysates at 10 uM using desthiobiotin-tagged ATP probe AX9989 followed by trypsinization by LC/MS analysis; settings: PC-3
[4] = target: SRSF protein kinase 1 (Homo sapiens) (UniProt Q96SB4); assay: Inhibition of SRPK1 in human PC3 cell lysates at 10 uM using desthiobiotin-tagged ATP probe AX9989 followed by trypsinization by LC/MS analysis; settings: PC-3
SRSF protein kinase 1 (Homo sapiens), sequence (Q96SB4 whole entry): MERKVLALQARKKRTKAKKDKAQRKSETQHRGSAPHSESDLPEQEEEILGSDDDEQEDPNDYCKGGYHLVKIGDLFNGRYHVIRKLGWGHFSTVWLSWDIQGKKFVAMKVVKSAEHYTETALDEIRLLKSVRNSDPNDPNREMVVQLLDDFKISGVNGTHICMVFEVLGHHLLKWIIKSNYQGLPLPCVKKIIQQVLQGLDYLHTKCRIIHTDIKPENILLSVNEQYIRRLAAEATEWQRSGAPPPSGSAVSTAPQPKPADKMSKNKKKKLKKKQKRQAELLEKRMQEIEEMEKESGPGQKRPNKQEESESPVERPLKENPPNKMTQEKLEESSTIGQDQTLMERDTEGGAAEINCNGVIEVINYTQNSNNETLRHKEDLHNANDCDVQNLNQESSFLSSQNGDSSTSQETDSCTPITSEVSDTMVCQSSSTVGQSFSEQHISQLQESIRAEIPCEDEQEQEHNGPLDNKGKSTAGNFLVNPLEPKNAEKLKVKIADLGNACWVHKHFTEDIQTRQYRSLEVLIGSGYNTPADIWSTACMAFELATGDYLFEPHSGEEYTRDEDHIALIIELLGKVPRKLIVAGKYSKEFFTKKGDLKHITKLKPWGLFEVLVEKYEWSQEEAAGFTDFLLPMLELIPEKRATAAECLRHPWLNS

[5] = target: Rho-associated protein kinase 2 (Homo sapiens) (UniProt O75116); assay: Inhibition of ROCK2 in human PC3 cell lysates at 10 uM using desthiobiotin-tagged ATP probe AX9989 followed by trypsinization by LC/MS analysis; settings: PC-3
Rho-associated protein kinase 2 (Homo sapiens), sequence (O75116 whole entry, looked up): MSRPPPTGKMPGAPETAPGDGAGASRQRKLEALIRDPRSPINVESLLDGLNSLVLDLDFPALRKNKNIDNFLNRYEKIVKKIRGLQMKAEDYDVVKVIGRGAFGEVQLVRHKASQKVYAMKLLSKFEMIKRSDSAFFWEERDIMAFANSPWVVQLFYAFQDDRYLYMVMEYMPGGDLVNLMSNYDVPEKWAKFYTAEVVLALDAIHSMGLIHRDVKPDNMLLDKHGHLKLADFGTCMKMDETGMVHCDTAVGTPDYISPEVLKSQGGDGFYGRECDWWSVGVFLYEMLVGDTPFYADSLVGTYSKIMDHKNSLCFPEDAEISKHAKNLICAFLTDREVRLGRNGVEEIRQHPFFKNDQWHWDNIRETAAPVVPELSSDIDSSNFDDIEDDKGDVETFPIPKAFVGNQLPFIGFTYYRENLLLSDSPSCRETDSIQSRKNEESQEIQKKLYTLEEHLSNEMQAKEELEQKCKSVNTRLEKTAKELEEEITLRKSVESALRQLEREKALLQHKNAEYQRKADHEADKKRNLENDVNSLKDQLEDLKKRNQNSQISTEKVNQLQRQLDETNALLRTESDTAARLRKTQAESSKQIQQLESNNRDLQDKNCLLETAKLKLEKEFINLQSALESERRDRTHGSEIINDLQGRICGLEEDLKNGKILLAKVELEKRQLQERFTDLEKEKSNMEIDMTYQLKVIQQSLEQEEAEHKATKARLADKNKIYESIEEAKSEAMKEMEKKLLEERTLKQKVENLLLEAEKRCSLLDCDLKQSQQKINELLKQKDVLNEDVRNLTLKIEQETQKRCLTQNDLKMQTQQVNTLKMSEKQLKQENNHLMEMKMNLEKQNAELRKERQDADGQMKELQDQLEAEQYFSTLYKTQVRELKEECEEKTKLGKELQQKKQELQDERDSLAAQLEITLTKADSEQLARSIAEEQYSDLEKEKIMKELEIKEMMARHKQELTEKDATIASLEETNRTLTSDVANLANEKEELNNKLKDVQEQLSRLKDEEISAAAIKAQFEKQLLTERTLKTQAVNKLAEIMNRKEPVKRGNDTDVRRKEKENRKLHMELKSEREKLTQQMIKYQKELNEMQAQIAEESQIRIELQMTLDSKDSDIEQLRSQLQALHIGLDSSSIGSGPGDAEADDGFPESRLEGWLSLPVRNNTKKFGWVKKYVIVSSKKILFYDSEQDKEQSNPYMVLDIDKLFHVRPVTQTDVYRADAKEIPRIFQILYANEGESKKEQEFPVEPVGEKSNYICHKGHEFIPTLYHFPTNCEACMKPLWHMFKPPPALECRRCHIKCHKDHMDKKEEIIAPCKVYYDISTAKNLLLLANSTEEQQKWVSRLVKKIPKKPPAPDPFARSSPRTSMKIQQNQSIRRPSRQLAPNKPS

[6] = target: T2, Phosphatidylinositol 5-phosphate 4-kinase type-2 gamma (Homo sapiens) (UniProt Q8TBX8); assay: Inhibition of PIP4K2C in human PC3 cell lysates at 10 uM using desthiobiotin-tagged ATP probe AX9989 followed by trypsinization by LC/MS analysis; settings: PC-3
T2 sequence (whole entry): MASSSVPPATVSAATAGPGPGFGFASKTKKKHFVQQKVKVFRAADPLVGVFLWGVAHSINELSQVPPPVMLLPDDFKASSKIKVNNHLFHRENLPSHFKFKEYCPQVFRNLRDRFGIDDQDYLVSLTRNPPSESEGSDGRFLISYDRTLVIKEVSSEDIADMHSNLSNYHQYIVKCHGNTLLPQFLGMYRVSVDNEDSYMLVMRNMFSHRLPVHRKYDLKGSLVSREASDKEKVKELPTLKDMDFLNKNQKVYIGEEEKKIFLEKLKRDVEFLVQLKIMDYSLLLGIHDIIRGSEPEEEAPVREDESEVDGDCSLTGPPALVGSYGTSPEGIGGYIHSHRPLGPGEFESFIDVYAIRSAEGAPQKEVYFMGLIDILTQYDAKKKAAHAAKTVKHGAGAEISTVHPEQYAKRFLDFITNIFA

[7] = target: Cyclin-dependent kinase 11B (Homo sapiens) (UniProt P21127); assay: Inhibition of CDK11 in human PC3 cell lysates at 10 uM using desthiobiotin-tagged ATP probe AX9989 followed by trypsinization by LC/MS analysis; settings: PC-3
Cyclin-dependent kinase 11B (Homo sapiens), sequence (P21127 whole entry): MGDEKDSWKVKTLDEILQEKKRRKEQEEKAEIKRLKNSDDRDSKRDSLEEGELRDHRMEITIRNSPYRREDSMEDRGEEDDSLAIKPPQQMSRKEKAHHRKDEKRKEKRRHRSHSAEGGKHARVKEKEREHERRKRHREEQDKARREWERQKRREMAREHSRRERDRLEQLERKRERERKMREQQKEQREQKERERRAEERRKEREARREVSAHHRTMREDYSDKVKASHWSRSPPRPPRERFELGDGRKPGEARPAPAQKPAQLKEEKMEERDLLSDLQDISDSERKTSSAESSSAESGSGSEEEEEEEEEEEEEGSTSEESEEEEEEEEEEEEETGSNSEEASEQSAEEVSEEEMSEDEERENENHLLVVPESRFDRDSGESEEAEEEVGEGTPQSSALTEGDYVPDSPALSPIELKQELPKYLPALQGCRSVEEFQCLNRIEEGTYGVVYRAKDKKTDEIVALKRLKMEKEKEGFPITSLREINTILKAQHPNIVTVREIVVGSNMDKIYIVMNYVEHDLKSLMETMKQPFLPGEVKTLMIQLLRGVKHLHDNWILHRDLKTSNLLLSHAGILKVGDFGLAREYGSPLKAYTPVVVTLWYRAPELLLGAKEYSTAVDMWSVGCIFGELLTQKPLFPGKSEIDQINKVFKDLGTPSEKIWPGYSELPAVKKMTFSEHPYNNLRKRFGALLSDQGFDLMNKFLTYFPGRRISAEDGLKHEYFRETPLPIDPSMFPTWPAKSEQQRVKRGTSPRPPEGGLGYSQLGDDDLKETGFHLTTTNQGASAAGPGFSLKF

[8] = target: T3, Serine/threonine-protein kinase TAO1 (Homo sapiens) (UniProt Q7L7X3); assay: Inhibition of TAO1 in human PC3 cell lysates at 10 uM using desthiobiotin-tagged ATP probe AX9989 followed by trypsinization by LC/MS analysis; settings: PC-3
T3 sequence (whole entry): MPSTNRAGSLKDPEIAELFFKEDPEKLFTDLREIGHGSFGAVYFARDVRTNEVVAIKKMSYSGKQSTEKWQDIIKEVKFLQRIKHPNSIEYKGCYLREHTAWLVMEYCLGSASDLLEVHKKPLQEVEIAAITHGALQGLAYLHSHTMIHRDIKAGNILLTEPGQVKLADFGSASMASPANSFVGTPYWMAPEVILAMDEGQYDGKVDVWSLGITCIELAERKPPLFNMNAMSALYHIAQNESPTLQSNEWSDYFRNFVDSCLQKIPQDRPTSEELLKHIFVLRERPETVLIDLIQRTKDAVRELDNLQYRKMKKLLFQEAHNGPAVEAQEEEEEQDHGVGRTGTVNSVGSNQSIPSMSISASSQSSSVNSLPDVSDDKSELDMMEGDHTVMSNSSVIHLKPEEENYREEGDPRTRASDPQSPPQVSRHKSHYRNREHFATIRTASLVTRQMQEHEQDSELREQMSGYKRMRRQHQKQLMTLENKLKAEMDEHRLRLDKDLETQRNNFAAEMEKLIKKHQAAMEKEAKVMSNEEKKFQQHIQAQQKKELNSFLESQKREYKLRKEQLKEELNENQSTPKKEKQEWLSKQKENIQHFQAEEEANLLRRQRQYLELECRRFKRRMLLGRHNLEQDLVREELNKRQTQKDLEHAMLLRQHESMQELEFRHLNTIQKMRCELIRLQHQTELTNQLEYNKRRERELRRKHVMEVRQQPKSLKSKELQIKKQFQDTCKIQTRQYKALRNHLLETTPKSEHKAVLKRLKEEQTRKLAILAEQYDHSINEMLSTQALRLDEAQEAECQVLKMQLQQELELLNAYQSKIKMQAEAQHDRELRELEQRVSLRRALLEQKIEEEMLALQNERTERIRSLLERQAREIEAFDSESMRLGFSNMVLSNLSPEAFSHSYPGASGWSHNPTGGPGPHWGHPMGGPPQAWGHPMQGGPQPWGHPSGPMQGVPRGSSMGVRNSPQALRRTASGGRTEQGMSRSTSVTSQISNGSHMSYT

[9] = target: Casein kinase I isoform alpha (Homo sapiens) (UniProt P48729); assay: Inhibition of CK1alpha in human PC3 cell lysates at 10 uM using desthiobiotin-tagged ATP probe AX9989 followed by trypsinization by LC/MS analysis; settings: PC-3
[10] = target: Mitogen-activated protein kinase kinase kinase 4 (Homo sapiens) (UniProt Q9Y6R4); assay: Inhibition of MAP3K4 in human PC3 cell lysates at 10 uM using desthiobiotin-tagged ATP probe AX9989 followed by trypsinization by LC/MS analysis; settings: PC-3
PC-3 = assay: Inhibition of KHS1 in human PC3 cell lysates at 10 uM using desthiobiotin-tagged ATP probe AX9989 followed by trypsinization by LC/MS analysis; format: cell-free

Measured: inhibition

Serine/threonine-protein kinase WNK2 (Homo sapiens), sequence (Q9Y3S1 whole entry): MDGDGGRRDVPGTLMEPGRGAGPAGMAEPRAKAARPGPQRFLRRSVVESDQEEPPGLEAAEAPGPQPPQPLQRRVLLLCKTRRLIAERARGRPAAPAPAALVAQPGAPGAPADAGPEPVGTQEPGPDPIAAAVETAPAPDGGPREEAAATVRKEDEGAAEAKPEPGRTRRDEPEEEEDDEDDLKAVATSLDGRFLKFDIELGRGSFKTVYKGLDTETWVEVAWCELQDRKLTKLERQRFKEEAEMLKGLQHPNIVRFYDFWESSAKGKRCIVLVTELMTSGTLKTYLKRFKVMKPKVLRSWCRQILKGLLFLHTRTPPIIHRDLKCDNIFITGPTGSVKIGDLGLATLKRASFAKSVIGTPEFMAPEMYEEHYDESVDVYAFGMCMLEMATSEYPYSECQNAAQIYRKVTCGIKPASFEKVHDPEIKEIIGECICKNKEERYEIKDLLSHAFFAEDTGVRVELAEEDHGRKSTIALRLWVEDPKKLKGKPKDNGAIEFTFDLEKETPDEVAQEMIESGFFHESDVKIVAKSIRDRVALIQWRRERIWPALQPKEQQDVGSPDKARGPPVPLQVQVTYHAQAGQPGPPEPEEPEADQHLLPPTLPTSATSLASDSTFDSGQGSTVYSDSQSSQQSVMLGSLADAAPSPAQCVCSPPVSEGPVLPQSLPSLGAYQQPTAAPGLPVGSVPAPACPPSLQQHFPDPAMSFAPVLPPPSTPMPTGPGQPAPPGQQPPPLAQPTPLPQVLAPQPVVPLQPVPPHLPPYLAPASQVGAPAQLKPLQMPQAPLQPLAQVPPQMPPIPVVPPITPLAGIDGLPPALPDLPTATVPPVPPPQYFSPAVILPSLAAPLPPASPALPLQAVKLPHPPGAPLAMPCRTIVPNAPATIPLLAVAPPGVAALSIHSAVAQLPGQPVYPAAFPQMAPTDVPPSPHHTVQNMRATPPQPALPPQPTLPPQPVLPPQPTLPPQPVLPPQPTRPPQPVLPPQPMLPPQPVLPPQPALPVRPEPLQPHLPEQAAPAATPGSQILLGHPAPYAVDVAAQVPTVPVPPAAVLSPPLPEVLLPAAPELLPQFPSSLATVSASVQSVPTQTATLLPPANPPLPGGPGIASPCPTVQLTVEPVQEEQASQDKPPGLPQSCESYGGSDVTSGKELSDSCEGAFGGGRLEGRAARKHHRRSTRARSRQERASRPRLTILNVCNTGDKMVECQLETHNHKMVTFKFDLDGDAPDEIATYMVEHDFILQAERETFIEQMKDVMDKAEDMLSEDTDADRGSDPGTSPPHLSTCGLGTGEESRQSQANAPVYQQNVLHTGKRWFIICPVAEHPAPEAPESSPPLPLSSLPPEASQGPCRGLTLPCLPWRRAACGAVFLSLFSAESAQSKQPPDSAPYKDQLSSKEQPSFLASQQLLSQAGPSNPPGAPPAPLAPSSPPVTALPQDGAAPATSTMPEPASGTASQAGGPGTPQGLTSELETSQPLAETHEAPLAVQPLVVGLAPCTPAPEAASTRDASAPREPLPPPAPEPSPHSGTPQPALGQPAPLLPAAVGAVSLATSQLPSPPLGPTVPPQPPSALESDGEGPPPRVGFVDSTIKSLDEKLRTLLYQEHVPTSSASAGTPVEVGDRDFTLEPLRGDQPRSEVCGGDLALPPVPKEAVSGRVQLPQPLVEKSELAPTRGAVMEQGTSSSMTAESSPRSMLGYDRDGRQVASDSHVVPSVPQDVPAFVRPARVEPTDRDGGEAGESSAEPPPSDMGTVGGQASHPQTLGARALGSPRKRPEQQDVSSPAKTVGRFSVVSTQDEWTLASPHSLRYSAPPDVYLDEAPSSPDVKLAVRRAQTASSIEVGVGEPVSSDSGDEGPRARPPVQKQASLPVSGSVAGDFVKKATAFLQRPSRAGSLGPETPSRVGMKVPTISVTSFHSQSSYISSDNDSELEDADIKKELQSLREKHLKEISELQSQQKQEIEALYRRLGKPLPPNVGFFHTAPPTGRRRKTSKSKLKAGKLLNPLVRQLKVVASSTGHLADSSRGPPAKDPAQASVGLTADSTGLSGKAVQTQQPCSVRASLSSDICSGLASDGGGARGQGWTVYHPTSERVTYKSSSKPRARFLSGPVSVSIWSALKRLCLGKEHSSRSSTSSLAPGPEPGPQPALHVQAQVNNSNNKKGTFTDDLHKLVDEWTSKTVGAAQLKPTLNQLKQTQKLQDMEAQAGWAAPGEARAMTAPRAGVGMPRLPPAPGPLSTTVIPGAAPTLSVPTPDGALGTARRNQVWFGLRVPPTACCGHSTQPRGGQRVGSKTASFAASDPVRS

O=C(NC1(c2ccccc2)CCC1)c1ccc2nc(N[C@H]3CC[C@H](O)CC3)c3nccn3c2c1
< 35%: all assays above

O=C(NC1(Cc2ccc(F)cc2)CC1)c1ccc2nc(N[C@H]3CC[C@H](O)CC3)c3nccn3c2c1
< 35%: all assays above
